# Reference: patent US20220125777A1, “COMBINATION OF A CDK INHIBITOR AND A PIM INHIBITOR” (Pfizer Inc., priority 2019, published 2022)
# Test system: HR+/HER2− advanced or metastatic breast cancer
# Test: Study 2: progression-free survival by PIM2 mRNA expression, palbociclib plus fulvestrant vs placebo plus fulvestrant
# Assay type: in vivo, human
# Conditions: Study 2, control arm, fulvestrant alone (placebo plus fulvestrant 500 mg IM); FIG. 2A
# Protocol: Study 2 was conducted in HR+/HER2− advanced or metastatic breast cancer (MBC) patients who had progressed on prior endocrine therapy. Pre- and peri-menopausal subjects were given an LHRH agonist. Subjects were treated with palbociclib (125 mg QD, 3/1 schedule) plus fulvestrant (500 mg IM on Days 1 and 15 of Cycle 1, and then Day 1 of each subsequent 28-day cycle) or placebo (3/1 schedule QD) plus fulvestrant on the same schedule. In both studies, the primary outcome was PFS as assessed by the investigator.
# Tumor samples were analyzed to identify potential predictive biomarkers for palbociclib plus letrozole treatment. Using the EdgeSeq Oncology BM Panel, mRNA expression was assessed for 2534 cancer-related genes. […] Targeted capture sequencing was used to quantitate RNA expression levels of gene targets. […]
# The primary outcome was PFS as assessed by the investigator.
# Tumor samples were analyzed by EdgeSeq Oncology BM Panel (HTG Molecular Diagnostics; https://www.htgmolecular.com/assays/obp) for mRNA expression assessment of 2534 cancer-related genes. […]
# The EdgeSeq system used was validated and used targeted capture sequencing to quantitate RNA expression levels of gene targets in formalin-fixed paraffin-embedded tumor tissues. […]
structure (smiles),measurement,value
C[C@]12CC[C@@H]3c4ccc(O)cc4C[C@@H](CCCCCCCCC[S+]([O-])CCCC(F)(F)C(F)(F)F)[C@H]3[C@@H]1CC[C@@H]2O (stereo partly shown) [fulvestrant],PFS of subjects having low PIM2 expression versus higher PIM2 expression,shorter PFS
